Patent publication US20160129077A1, “Use of recombinant ganoderma immunoregulatory protein (rLZ-8) in preparation of drug for treating melanoma” (priority 2013, published 2016)
Where two headings read alike, the source gives them in different places. Marks after values point to notes of the source that are not given here.

How the values were obtained:
B16-F10 lung metastases = experiment: B16-F10 melanoma lung metastasis model (tail vein injection) in Kunming mice; format: in vivo; details: DTIC 2.5 mg/kg
From the text: DMEM, fetal bovine serum, PBS, trypsin-EDTA, DMSO, Tris-HCl buffer with pH 7.6 for rinsing, 0.05% trypsin, rLZ-8, and DTIC.
After the mice were put to death, lungs of the dead mice were dissected out and the number of black spots on surfaces of the lungs, formed by an aggregation of metastasis cell, was counted, so as to calculate the inhibition rate of the drug against the growth of the lung metastasis as: inhibition rate=(an average metastasis number of the negative contrast group−an average metastasis number of the drug administrated group)/the average metastasis number of the negative contrast group×100%. A time and the number of the dead mouse in each experiment group were recorded in detail, especially during administrating the drug continuously, until the negative contrast group was completely dead; and then, the survival states of the mice in the experiment groups and the contrast groups were analyzed. A survival rate was calculated according to the number of the dead mice in the other groups when all the mice of the negative contrast group were dead, based on a formula that survival rate=(a total number of the mice−the number of the dead mice)/the total number of the mice.

metastatic melanoma = details: immune therapy; cited from earlier work
[1] = DTIC 2.5 mg/kg tail i.v., administration for 28 days
[2] = DTIC 2.5 mg/kg, administration for 56 days
[3] = DTIC 2.5 mg/kg, dead mice/animal number

Protocol for B16F10 orthotopic tumor: The mice were transplanted with a melanoma cells line B16-F10.
The mice melanoma cells B16-F10 were cultured in the DMEM containing 10% fetal bovine serum, at 37° C. in the CO2 thermostat incubator. 200 μl of B16-F10 cell suspension (containing 1×10^7 cells) was slowly subcutaneously injected into a dorsal-ventral side of the mouse through 1 ml syringe, so as to establish a model of mice transplanted with tumors. […] The rLZ-8 was injected once per day; the DTIC was continuously tail-intravenously injected for 5 days and injected for a second time after 3 weeks. During the experiment, living states of the mice were observed; the mice were weighed once every 7 days; blood samples were taken from tail veins of the mice every 2 weeks; volumes of the tumors, subcutaneously injected into the mice, were measured every 2 days; for each group, the tumors were dissected at an end of the experiment and weighed on the balance, with weights recorded. According to a formula that a tumor growth inhibition rate=(an average weight of the tumors of the physiological saline group−an average weight of the tumors of the drug administrated groups)/the average weight of the tumors of the physiological saline group, the inhibition rate of the rLZ-8 upon the growth of the orthotopic tumor was calculated.

Row | Compound | Survival rate when all mice of the negative contrast group were dead (B16-F10 lung metastases; 87th / 95th day after injecting the tumors) | Tumor metastases inhibition rate (B16-F10 lung metastases; administration for 28 days) | Tumor metastases inhibition rate (B16-F10 lung metastases; administration for 56 days) | Tumor volume (B16F10 orthotopic tumor; [1]) | Tumor weight (B16F10 orthotopic tumor; [1]) | Tumor growth inhibition rate (B16F10 orthotopic tumor; DTIC 2.5 mg/kg, administration for 28 days) | Tumor growth inhibition rate (B16F10 orthotopic tumor; [2]) | Tumor volume (B16F10 orthotopic tumor; [2]) | Tumor weight (B16F10 orthotopic tumor; [2]) | Mortality rate (administration for 28 days) (B16F10 orthotopic tumor; [3]) | Mortality rate (administration for 56 days) (B16F10 orthotopic tumor; [3]) | Body leukocyte number (B16F10 orthotopic tumor; tumor-bearing mice, tail vein blood, anti-tumor treatment experiment (28/56 days)) | Positive reaction rate (metastatic melanoma)
1 | CN(C)/N=N/c1[nH]cnc1C(N)=O [DTIC, Dacarbazine, reference compound] | 10% | 32.04±1.27% | 58.43 ± 3.21% | 0.19 ± 0.09** mm^3 | 0.23 ± 0.12 g | 81.26 ± 0.27^ % | 64.42 ± 0.41^ % | 0.73 ± 0.21* mm^3 | 0.87 ± 0.26 g | 0/10 | 4/10 | greatly decreased the body leukocyte number | 
2 | ipilimumab: anti-CTLA-4 antibody, immune therapy for metastatic melanoma |  |  |  |  |  |  |  |  |  |  |  |  | about 10.9%
